Experimental data from patent publication US11793849B2, “Method of Chinese herbal medicine extract used for treating multiple diseases caused by drug resistant bacteria infection” (priority 2016, dated 2023).
In brackets after ≈: the same amount, converted by molar mass. Read-outs that look alike come from different tables or passages of the source.

Key:
MDRAB = experiment: MIC determination, microdilution broth method; format: cell-based, Acinetobacter baumannii
Protocol: Determination methods of a Minimal Inhibitory Concentration (MIC) and a Minimum Bactericidal Concentration (MBC) of a test product: the MIC and the MBC of the Pithecellobium clypearia Benth water or ethanol extract to the MDRAB are determined by a microdilution broth method. And it is operated by referring to the microdilution broth method recommended by National Committee for Clinical Laboratory Standards (NCCLS).

ATCC27853 = experiment: MIC determination, control strain; format: cell-based
Protocol: Determination methods of a Minimal Inhibitory Concentration (MIC) and a Minimum Bactericidal Concentration (MBC) of a test product: the MIC and the MBC of the Pithecellobium clypearia Benth water or ethanol extract to the MDRAB are determined by a microdilution broth method.

MDRPA = experiment: Checkerboard assay (combined-use MIC, FIC); format: cell-based, Pseudomonas aeruginosa; conditions: for FIC, all strains / MIC50 of the antibiotic after combined use / MIC90 of the antibiotic after combined use / reduction of the antibiotic's MIC50 vs single use / reduction of the antibiotic's MIC90 vs single use / share of strains with FIC ≤ 0.5: 20 MDRPAs; for combined-use MIC: EA (P. clypearia water extract) combined with LVX
Protocol: Test methods of the sensibilization effects of the test product to similar antibiotics: it is operated by referring to a checkerboard assay recommended by NCCLS.
The checkerboard assay is performed in a 96-pore sterile culture plate.
Calculation of a Fractional Inhibitory Concentration (FIC): FIC=S20b combined-use MIC/S20b single-use MIC+antibiotic combined-use MIC/antibiotic single-use MIC. By calculating the FIC, the combined antibacterial interaction between the EA and the antibiotic is evaluated, with synergistic effect for FIC≤0.5, additive effect for 0.5<FIC≤1, indifferent effect for 1<FIC≤2 and antagonistic effect for FIC>2. According to a sterile growth pore, the optimum concentration ratio between the EA and the antibiotic is founded out. At last, the effect of the EA to strengthen the efficacy of the antibiotic is evaluated.

[1] = single use, 20 MDRABs, EA=10% ethanol extract
[2] = single use, 20 MDRABs, EA=water extract
[3] = single use, 20 MDRABs, section of the 95% ethanol extract
[4] = antibiotic with 10% ethanol extract
[5] = antibiotic with 60% ethanol extract
[6] = antibiotic with 95% ethanol extract
[7] = antibiotic with EA (water extract)

Work on `C[C@H]1COc2c(N3CCN(C)CC3)c(F)cc3c(=O)c(C(=O)O)cn1c23` [LVX, Levofloxacin] yielded an MIC (MDRAB; Acinetobacter baumannii, strain A18, EA=60% ethanol extract, read-out: MIC) of 8 µg/mL (≈ 22.1 µM), an MIC (MDRAB; Acinetobacter baumannii, strain A18, EA=95% ethanol extract, read-out: MIC) of 8 µg/mL (≈ 22.1 µM) and an MIC (MDRAB; Acinetobacter baumannii, strain A18, EA=P. clypearia 95% ethanol extract, read-out: single-use MIC) of 8 µg/mL (≈ 22.1 µM). The MIC (MDRAB; Acinetobacter baumannii, strain A18, single use, EA=10% ethanol extract, read-out: MIC) was 8 µg/mL (≈ 22.1 µM), the MIC (MDRAB; Acinetobacter baumannii, strain A18, single use, EA=water extract, read-out: MIC) was 8 µg/mL (≈ 22.1 µM) and the MIC (MDRAB; Acinetobacter baumannii, strain A19, EA=60% ethanol extract, read-out: MIC) was 16 µg/mL (≈ 44.3 µM). It also gave an MIC (MDRAB; Acinetobacter baumannii, strain A19, EA=95% ethanol extract, read-out: MIC) of 16 µg/mL (≈ 44.3 µM), an MIC (MDRAB; Acinetobacter baumannii, strain A19, EA=P. clypearia 95% ethanol extract, read-out: single-use MIC) of 16 µg/mL (≈ 44.3 µM) and an MIC (MDRAB; Acinetobacter baumannii, strain A19, single use, EA=10% ethanol extract, read-out: MIC) of 16 µg/mL (≈ 44.3 µM). The MIC (MDRAB; Acinetobacter baumannii, strain A19, single use, EA=water extract, read-out: MIC) was 16 µg/mL (≈ 44.3 µM), the MIC (MDRAB; Acinetobacter baumannii, strain A20, EA=60% ethanol extract, read-out: MIC) was 16 µg/mL (≈ 44.3 µM) and the MIC (MDRAB; Acinetobacter baumannii, strain A20, EA=95% ethanol extract, read-out: MIC) was 16 µg/mL (≈ 44.3 µM). It also gave an MIC (MDRAB; Acinetobacter baumannii, strain A20, EA=P. clypearia 95% ethanol extract, read-out: single-use MIC) of 16 µg/mL (≈ 44.3 µM), an MIC (MDRAB; Acinetobacter baumannii, strain A20, single use, EA=10% ethanol extract, read-out: MIC) of 16 µg/mL (≈ 44.3 µM) and an MIC (MDRAB; Acinetobacter baumannii, strain A20, single use, EA=water extract, read-out: MIC) of 16 µg/mL (≈ 44.3 µM). For the same compound, the MIC (MDRAB; Acinetobacter baumannii, strain AS, EA=P. clypearia 95% ethanol extract, read-out: single-use MIC) was 4 µg/mL (≈ 11.1 µM), the MIC50 (MDRAB; Acinetobacter baumannii, single use, 20 MDRABs, section of the 60% ethanol extract, read-out: MIC50) was 8 µg/mL (≈ 22.1 µM) and the MIC90 (MDRAB; Acinetobacter baumannii, single use, 20 MDRABs, section of the 60% ethanol extract, read-out: MIC90) was 32 µg/mL (≈ 88.6 µM). For the same compound, the MIC50 (MDRAB; MDRABs, EA=60% ethanol extract) was 8 µg/mL (≈ 22.1 µM), the MIC90 (MDRAB; MDRABs, EA=60% ethanol extract) was 32 µg/mL (≈ 88.6 µM) and the “MIC Range” value (MDRAB; MDRABs, EA=60% ethanol extract) was 0.5 to 32 µg/mL. The MIC50 (MDRAB; MDRABs, EA=95% ethanol extract) was 8 µg/mL (≈ 22.1 µM), the MIC90 (MDRAB; MDRABs, EA=95% ethanol extract) was 32 µg/mL (≈ 88.6 µM) and the “MIC Range” value (MDRAB; MDRABs, EA=95% ethanol extract) was 0.5 to 32 µg/mL. For the same compound, the MIC50 (MDRAB; [1]) was 8 µg/mL (≈ 22.1 µM), the MIC90 (MDRAB; [1]) was 32 µg/mL (≈ 88.6 µM) and the “MIC Range” value (MDRAB; [1]) was 0.5 to 32 µg/mL. The MIC50 (MDRAB; [2]) was 8 µg/mL (≈ 22.1 µM), the MIC90 (MDRAB; [2]) was 32 µg/mL (≈ 88.6 µM) and the “MIC Range” value (MDRAB; [2]) was 0.5 to 32 µg/mL. The MIC50 (MDRAB; [3]) was 8 µg/mL (≈ 22.1 µM), the MIC90 (MDRAB; [3]) was 32 µg/mL (≈ 88.6 µM) and the MIC (ATCC27853; EA=10% ethanol extract, read-out: MIC) was 1 µg/mL (≈ 2.77 µM). It also gave an MIC (ATCC27853; EA=60% ethanol extract, read-out: MIC) of 1 µg/mL (≈ 2.77 µM), an MIC (ATCC27853; EA=95% ethanol extract, read-out: MIC) of 1 µg/mL (≈ 2.77 µM) and an MIC (ATCC27853; EA=P. clypearia 10% ethanol extract, read-out: MIC (single use)) of 1 µg/mL (≈ 2.77 µM). The MIC (ATCC27853; EA=P. clypearia water extract, read-out: MIC (single use)) was 1 µg/mL (≈ 2.77 µM), the MIC (ATCC27853; EA=water extract, read-out: MIC) was 1 µg/mL (≈ 2.77 µM) and the MIC (ATCC27853; single use, EA = 60% ethanol extract, read-out: MIC) was 1 µg/mL (≈ 2.77 µM). The MIC (ATCC27853; single use, EA = 95% ethanol extract, read-out: MIC) was 1 µg/mL (≈ 2.77 µM), the “FIC, all strains” value (MDRPA; [4]) was at most 2 and the “MIC50 of the antibiotic after combined use” value (shortened to “MIC50 of the antibiotic”) (MDRPA; [4]) was 1 µg/mL. For the same compound, the “MIC90 of the antibiotic after combined use” value (shortened to “MIC90 of the antibiotic”) (MDRPA; [4]) was 4 µg/mL, the “reduction of the antibiotic's MIC50 vs single use” value (MDRPA; [4]) was 75% and the “reduction of the antibiotic's MIC90 vs single use” value (MDRPA; [4]) was 87.5%. For the same compound, the “share of strains with FIC ≤ 0.5” value (MDRPA; [4]) was 15%, the “MIC50 of the antibiotic” value (MDRPA; [5]) was 1 µg/mL and the “MIC90 of the antibiotic” value (MDRPA; [5]) was 8 µg/mL. The “reduction of the antibiotic's MIC50 vs single use” value (MDRPA; [5]) was 75%, the “reduction of the antibiotic's MIC90 vs single use” value (MDRPA; [5]) was 75% and the “share of strains with FIC ≤ 0.5” value (MDRPA; [5]) was 10%. For the same compound, the “FIC, all strains” value (MDRPA; [6]) was at most 2, the “MIC50 of the antibiotic” value (MDRPA; [6]) was 1 µg/mL and the “MIC90 of the antibiotic” value (MDRPA; [6]) was 4 µg/mL. For the same compound, the “reduction of the antibiotic's MIC50 vs single use” value (MDRPA; [6]) was 75%, the “reduction of the antibiotic's MIC90 vs single use” value (MDRPA; [6]) was 87.5% and the “share of strains with FIC ≤ 0.5” value (MDRPA; [6]) was 10%. For the same compound, the “FIC, all strains” value (MDRPA; [7]) was at most 2, the “MIC50 of the antibiotic” value (MDRPA; [7]) was 1 µg/mL and the “MIC90 of the antibiotic” value (MDRPA; [7]) was 8 µg/mL. For the same compound, the “reduction of the antibiotic's MIC50 vs single use” value (MDRPA; [7]) was 75%, the “reduction of the antibiotic's MIC90 vs single use” value (MDRPA; [7]) was 75% and the “share of strains with FIC ≤ 0.5” value (MDRPA; [7]) was 15%. The “combined-use MIC” value (MDRPA; strain P1) was 4 µg/mL, the “combined-use MIC” value (MDRPA; strain P2) was 0.03125 µg/mL and the “combined-use MIC” value (MDRPA; strain P3) was 0.03125 µg/mL. For the same compound, the “combined-use MIC” value (MDRPA; strain P4) was 4 µg/mL, the “combined-use MIC” value (MDRPA; strain P5) was 0.03125 µg/mL and the “combined-use MIC” value (MDRPA; strain P6) was 0.03125 µg/mL. The “combined-use MIC” value (MDRPA; strain P7) was 0.03125 µg/mL, the “combined-use MIC” value (MDRPA; strain P8) was 0.03125 µg/mL and the “combined-use MIC” value (MDRPA; strain P9) was 2 µg/mL. The “combined-use MIC” value (MDRPA; strain P10) was 32 µg/mL, the “combined-use MIC” value (MDRPA; strain P11) was 1 µg/mL and the “combined-use MIC” value (MDRPA; strain P12) was 0.5 µg/mL. The “combined-use MIC” value (MDRPA; strain P13) was 1 µg/mL, the “combined-use MIC” value (MDRPA; strain P14) was 1 µg/mL and the “combined-use MIC” value (MDRPA; strain P15) was 1 µg/mL. For the same compound, the “combined-use MIC” value (MDRPA; strain P16) was 2 µg/mL, the “combined-use MIC” value (MDRPA; strain P17) was 4 µg/mL and the “combined-use MIC” value (MDRPA; strain P18) was 8 µg/mL. For the same compound, the “combined-use MIC” value (MDRPA; strain P19) was 4 µg/mL and the “combined-use MIC” value (MDRPA; strain P20) was 1 µg/mL.
